# From US20060094722A1 (Eisai Co., Ltd., priority 2002, published 2006)
# Counter-ions that a name gives are not always drawn. Like-named read-outs stand apart in the source and are kept apart here.
# Tests used:
# [1] = test system: DPPIV-deficient male Fisher rats
# Description: Animals: DPPIV-deficient male Fisher rats (purchased from Charles River Japan, Inc.)
# Each test compound was suspended in a solution of 0.5% methyl cellulose at the doses indicated in Table 2, and then administered orally at a volume of 5 mL/kg. The vehicle control group was orally administered a solution of 0.5% methyl cellulose at a volume of 5 mL/kg.
# An unanesthetized rat was lightly cut at the caudal vein with a razor blade and bled immediately before, and at 1, 3, and 5 hours after the administration of a test compound or a solution of 0.5% methyl cellulose. 250 μL of blood was collected from the rat using a heparinized capillary and transferred into a centrifugation tube. The supernatant obtained by centrifugation (at 10000 g at 4° C. for 2 minutes) was assayed for GLP-1 level using Active GLP-1 ELISA kit (Linco).
# [2] = test system: DPPIV-intact normal male Fisher rats; assay: Influences of metformin and DPPIV inhibitors (Examples 82, 119, 120, 122, 229, 267), singly or in combination, on GLP-1 level in normal rats; format: in vivo, rat; conditions: 3 hours
# Description: Animals: DPPIV-Intact Normal Male Fisher Rats (Purchased from CLEA Japan, Inc.)
# 250 μL of blood was collected from the rat using a heparinized capillary and transferred into a centrifugation tube.
# [3] = target: T1, DPPIV obtained from swine kidney (Sus scrofa, UniProt P22411); assay: Assay for the DPPIV-inhibiting activity; format: biochemical; conditions: DPPIV 10 mU/mL, Gly-Pro-p-nitroanilide 0.33 mM, absorbance 405 nm
# T1 construct: DPPIV obtained from swine kidney; from tissue; host or cells: swine kidney
# T1 sequence (P22411 whole entry): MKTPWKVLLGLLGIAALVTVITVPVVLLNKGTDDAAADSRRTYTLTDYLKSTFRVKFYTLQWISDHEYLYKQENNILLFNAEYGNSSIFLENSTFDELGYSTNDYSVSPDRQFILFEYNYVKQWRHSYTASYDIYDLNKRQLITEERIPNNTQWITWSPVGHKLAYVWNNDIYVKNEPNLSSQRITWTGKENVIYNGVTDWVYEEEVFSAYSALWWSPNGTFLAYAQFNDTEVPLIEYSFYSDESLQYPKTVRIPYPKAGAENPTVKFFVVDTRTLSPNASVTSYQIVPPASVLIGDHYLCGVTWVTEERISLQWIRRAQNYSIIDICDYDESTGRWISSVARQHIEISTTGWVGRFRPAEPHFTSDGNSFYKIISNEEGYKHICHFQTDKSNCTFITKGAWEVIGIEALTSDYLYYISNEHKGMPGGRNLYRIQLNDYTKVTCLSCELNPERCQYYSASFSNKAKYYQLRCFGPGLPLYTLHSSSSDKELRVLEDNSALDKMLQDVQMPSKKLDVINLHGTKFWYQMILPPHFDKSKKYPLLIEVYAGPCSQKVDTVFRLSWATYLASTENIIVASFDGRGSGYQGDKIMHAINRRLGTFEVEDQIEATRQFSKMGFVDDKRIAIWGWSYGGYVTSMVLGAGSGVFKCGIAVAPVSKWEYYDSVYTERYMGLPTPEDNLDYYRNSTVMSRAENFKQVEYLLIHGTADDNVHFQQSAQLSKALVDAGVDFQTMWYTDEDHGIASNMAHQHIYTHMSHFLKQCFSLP
# Description: DPPIV obtained from swine kidney was dissolved in a reaction buffer (50 mM Tris-HCl (pH 7.4)/0.1% BSA) at a fmal concentration of 10 mU/mL. A 110 μL aliquot of this enzyme solution was added to the reaction system, and then 15 μL of an agent was added. The reaction solution was incubated at room temperature for 20 minutes. 25 μL of a solution containing 2 mM Gly-Pro-p-nitroanilide was added to the reaction solution (at the final concentration of 0.33 mM) to start the enzyme reaction. The reaction time was 20 minutes. 25 μL of 1N phosphate solution was added to stop the reaction. […] The degree of inhibition to the enzyme reaction was determined, and IC50 was computed based on the absorbance.
# Zucker fa/fa rats [4] = conditions: for Blood glucose level at each time point (hr) after oral glucose administration / GLP-1 concentration at each time point (hr) after oral glucose administration (% of Pre) / Insulin concentration at each time point (hr) after oral glucose administration: 30 mg/kg p.o. 0.5 hour before glucose load
# Description: (§1) Animals: Zucker fa/fa Rats, an Animal Model for TypeII Diabetes (Purchased from Charles River Japan, Inc.)
# (§2) Each test compound was dissolved in distilled water at the doses shown in the Tables indicated below, and then administered orally at a volume of 5 mL/kg. The vehicle control group was orally administered distilled water at a volume of 5 mL/kg. […] The rats were tested for glucose tolerance on the first day of the administration series. In the test, distilled water and the test compounds were given 0.5 hour before glucose load.
# For the glucose tolerance test, an unanesthetized rat was lightly cut at the caudal vein with a razor blade and bled immediately before the administration of a test compound or distilled water, and immediately before, and at 0.5, 1, 2, and 3 hours after glucose load. 250 μL of blood was collected from the rat using a heparinized capillary and transferred into a centrifugation tube. The supernatant obtained by centrifugation (at 10000 g at 4° C. for 2 minutes) was assayed for active GLP-1 level using Active GLP-1 ELISA kit (Linco). At the same time, 10 μL of blood was collected and mixed with 140 μL of a 0.6 M perchloric acid solution. The mixture was centrifuged (at 3000 g at 4° C. for 10 minutes), and the resulting supernatant was assayed for glucose using Glucose Test Wako II (Wako Pure Chemical Industries, Inc.). The level of blood glucose alone was determined at the time of measurement 3 hours after glucose load.
# [5] = test system: DPPIV-intact normal male Fisher rats; conditions: 30 mg/kg p.o.
# Description: Each test compound was suspended in a solution of 0.5% methyl cellulose at the doses indicated in Table 3, and then administered orally at a volume of 5 mL/kg. The vehicle control group was orally administered a solution of 0.5% methyl cellulose at a volume of 5 mL/kg.
# An unanesthetized rat was lightly cut at the caudal vein with a razor blade and bled immediately before, and at 1, 3, and 5 hours after administration of a test compound or a solution of 0.5% methyl cellulose. 250 μL of blood was collected from the rat using a heparinized capillary and transferred into a centrifugation tube. The supernatant obtained by centrifugation (at 10000 g at 4° C. for 2 minutes) was assayed for GLP-1 level using Active GLP-1 ELISA kit (Linco).
# Zucker fa/fa rats [6] = conditions: 30 mg/kg p.o. twice daily for 14 days
# Description: as §1, §2
# Food intake and body weight were determined at 4:00 p.m after the 14-day administration series. Total food intake and weight gain over 14 days were determined for each experimental group.
# Description for BALB/c AnCrj mice: Animals: BALB/c AnCrj Mice (Purchased from Charles River Japan, Inc.)
# 5-FU (purchased from Sigma) was suspended in a solution of 0.5% methyl cellulose, and then administered orally at a volume of 10 mL/kg/day (8 a.m. to 9 a.m.) for 3 days (60 mg/kg). […] The vehicle control group was orally administered a solution of 0.5% methyl cellulose at a volume of 10 mL/kg.
# Mice were fasted for 18 hours following the afternoon administration on the third day of the administration series. On the following day, the mice were killed by cervical dislocation, and then the whole small intestine was excised and the wet weight was measured.
compound,measurement,setting,value
"CCCCNC(=N)NC(=N)N [Buformin, buformin]",GLP-1 concentration at each time point (hr) after oral administration (% of Pre),"[1]; 30 mg/kg p.o., 0 hr",100 ± 0.0 % of Pre
same,GLP-1 concentration at each time point (hr) after oral administration (% of Pre),"[1]; 30 mg/kg p.o., 1 hr",118.7 ± 9.3 % of Pre
same,GLP-1 concentration at each time point (hr) after oral administration (% of Pre),"[1]; 30 mg/kg p.o., 3 hr",122.7 ± 7.1 % of Pre
same,GLP-1 concentration at each time point (hr) after oral administration (% of Pre),"[1]; 30 mg/kg p.o., 5 hr",114.6 ± 4.4 % of Pre
same,GLP-1 concentration at each time point (hr) after oral administration (% of Pre),"[1]; 100 mg/kg p.o., 0 hr",100 ± 0.0 % of Pre
same,GLP-1 concentration at each time point (hr) after oral administration (% of Pre),"[1]; 100 mg/kg p.o., 1 hr",163.6 ± 19.6 % of Pre
same,GLP-1 concentration at each time point (hr) after oral administration (% of Pre),"[1]; 100 mg/kg p.o., 1 hr, listed as buformin",significantly elevated
same,GLP-1 concentration at each time point (hr) after oral administration (% of Pre),"[1]; 100 mg/kg p.o., 3 hr",171.2 ± 9.1 % of Pre
same,GLP-1 concentration at each time point (hr) after oral administration (% of Pre),"[1]; 100 mg/kg p.o., 5 hr",195.8 ± 36.6 % of Pre
same,GLP-1 concentration at each time point (hr) after oral administration (% of Pre),"[1]; 100 mg/kg p.o., 5 hr, listed as buformin",significantly elevated
"O=c1[nH]cc(F)c(=O)[nH]1 [Example 5-FU, 5-Fluorouracil]",wet weight of mouse small intestine,BALB/c AnCrj mice; 5-FU 60 mg/kg p.o. for 3 days,significantly decreased
"CC#CCn1c(N2CCNCC2)nc2nc(C#N)n(C)c(=O)c21.O=C(O)C(F)(F)F [Example 82, 7-(2-Butynyl)-2-cyano-1-methyl-8-(piperazin-1-yl)-1,7-dihydropurin-6-one trifluoroacetate]",GLP-1 concentration 3 hours after oral administration (% of Pre),[2]; 20 mg/kg p.o.,97.3 ± 2.1 % of Pre
"CC#CCn1c(N2CCNCC2)nc2cnn(C)c(=O)c21 [Example 119, 3-(2-Butynyl)-5-methyl-2-(piperazin-1-yl)-3,5-dihydroimidazo[4,5-d]pyridazin-4-one]",GLP-1 concentration 3 hours after oral administration (% of Pre),[2]; 10 mg/kg p.o.,98.9 ± 2.2 % of Pre
same,IC50,[3]; read-out: IC50,154 nM
"CC#CCn1c(N2CCCC(N)C2)nc2cnn(C)c(=O)c21.O=C(O)C(F)(F)F (stereo not drawn) [Example 120, 2-(3-Aminopiperidin-1-yl)-3-(2-butynyl)-5-methyl-3,5-dihydroimidazo[4,5-d]pyridazin-4-one trifluoroacetate]",GLP-1 concentration 3 hours after oral administration (% of Pre),[2]; 10 mg/kg p.o.,104.8 ± 2.9 % of Pre
"CC#CCn1c(N2CCNCC2)nc2nc(Oc3ccccc3C(N)=O)n(C)c(=O)c21 [Example 122, 2-[7-(2-Butynyl)-1-methyl-6-oxo-8-(piperazin-1-yl)-6,7-dihydro-1H-purin-2-yloxy]benzamide]",GLP-1 concentration 3 hours after oral administration (% of Pre),[2]; 10 mg/kg p.o.,108.2 ± 6.6 % of Pre
same,IC50,[3]; read-out: IC50,15.3 nM
"CC#CCn1c(N2CCNCC2)nc2nc(C#N)n(Cc3ccccc3C#N)c(=O)c21.Cl [Example 229, 7-(2-Butynyl)-1-(2-cyanobenzyl)-6-oxo-8-(piperazin-1-yl)-6,7-dihydro-1H-purine-2-carbonitrile hydrochloride]",GLP-1 concentration 3 hours after oral administration (% of Pre),[2]; 10 mg/kg p.o.,102.5 ± 1.7 % of Pre
"CC#CCn1c(N2CCNCC2)nc2cnn(Cc3ccccc3C#N)c(=O)c21.O=C(O)C(F)(F)F [Example 267, 2-[3-(2-Butynyl)-4-oxo-2-(piperazin-1-yl)-3,4-dihydroimidazo[4,5-d]pyridazin-5-ylmethyl]benzonitrile trifluoroacetate]",GLP-1 concentration 3 hours after oral administration (% of Pre),[2]; 10 mg/kg p.o.,110.0 ± 9.0 % of Pre
"CC#CCn1c(N2CCNCC2)nc2c1c(=O)n(CCc1ccccc1)c(=O)n2CC(=O)NC [Example 419, 2-[7-(2-Butynyl)-2,6-dioxo-1-(2-phenethyl)-8-(piperazin-1-yl)-1,2,6,7-tetrahydropurin-3-yl]-N-methylacetamide hydrochloride]",IC50,[3]; IC50 (nM),1.55 nM
"CC#CCn1c(N2CCNCC2)nc2c1c(=O)n(CCc1ccccc1)c(=O)n2CC(=O)NC1CC1 [Example 420, 2-[7-(2-Butynyl)-2,6-dioxo-1-(2-phenethyl)-8-(piperazin-1-yl)-1,2,6,7-tetrahydropurin-3-yl]-N-cyclopropyl acetamide hydrochloride]",IC50,[3]; IC50 (nM),1.7 nM
"CC#CCn1c(N2CCNCC2)nc2c1c(=O)n(CCc1ccccc1)c(=O)n2CC(=O)Nc1ccccc1 [Example 421, 2-[7-(2-Butynyl)-2,6-dioxo-1-(2-phenethyl)-8-(piperazin-1-yl)-1,2,6,7-tetrahydropurin-3-yl]-N-phenylacetamide hydrochloride]",IC50,[3]; IC50 (nM),3.37 nM
"C#CCNC(=O)Cn1c(=O)n(CCc2ccccc2)c(=O)c2c1nc(N1CCNCC1)n2CC#CC [Example 422, 2-[7-(2-Butynyl)-2,6-dioxo-1-(2-phenethyl)-8-(piperazin-1-yl)-1,2,6,7-tetrahydropurin-3-yl]-N-(2-propynyl) acetamide hydrochloride]",IC50,[3]; IC50 (nM),0.472 nM
"[H]/N=C(/N)N/C(=N/[H])NCCc1ccccc1 [Phenformin, phenformin]",GLP-1 concentration at each time point (hr) after oral administration (% of Pre),"[1]; 30 mg/kg p.o., 0 hr",100 ± 0.0 % of Pre
same,GLP-1 concentration at each time point (hr) after oral administration (% of Pre),"[1]; 30 mg/kg p.o., 1 hr",125.3 ± 10.7 % of Pre
same,GLP-1 concentration at each time point (hr) after oral administration (% of Pre),"[1]; 30 mg/kg p.o., 3 hr",120.0 ± 7.2 % of Pre
same,GLP-1 concentration at each time point (hr) after oral administration (% of Pre),"[1]; 30 mg/kg p.o., 5 hr",126.7 ± 10.7 % of Pre
same,GLP-1 concentration at each time point (hr) after oral administration (% of Pre),"[1]; 100 mg/kg p.o., 0 hr",100 ± 0.0 % of Pre
same,GLP-1 concentration at each time point (hr) after oral administration (% of Pre),"[1]; 100 mg/kg p.o., 1 hr",316.9 ± 26.4 % of Pre
same,GLP-1 concentration at each time point (hr) after oral administration (% of Pre),"[1]; 100 mg/kg p.o., 1 hr, listed as phenformin",significantly elevated
same,GLP-1 concentration at each time point (hr) after oral administration (% of Pre),"[1]; 100 mg/kg p.o., 3 hr",330.7 ± 112.4 % of Pre
same,GLP-1 concentration at each time point (hr) after oral administration (% of Pre),"[1]; 100 mg/kg p.o., 3 hr, listed as phenformin",significantly elevated
same,GLP-1 concentration at each time point (hr) after oral administration (% of Pre),"[1]; 100 mg/kg p.o., 5 hr",236.5 ± 20.5 % of Pre
same,GLP-1 concentration at each time point (hr) after oral administration (% of Pre),"[1]; 100 mg/kg p.o., 5 hr, listed as phenformin",significantly elevated
"CC(C)[C@H](N)C(=O)N1CCCC1 [Val-Pyr, valine pyrrolidide]",level of insulin during the glucose tolerance test,Zucker fa/fa rats [4],increased significantly
same,Blood glucose level at each time point (hr) after oral glucose administration,Zucker fa/fa rats [4]; 0 hr,110.5 ± 3.3 mg/dL
same,GLP-1 concentration at each time point (hr) after oral glucose administration (% of Pre),Zucker fa/fa rats [4]; 0 hr,119.5 ± 3.6 % of Pre
same,Insulin concentration at each time point (hr) after oral glucose administration,Zucker fa/fa rats [4]; 0 hr,13.1 ± 1.2 ng/mL
same,Blood glucose level at each time point (hr) after oral glucose administration,Zucker fa/fa rats [4]; 0.5 hr,166.0 ± 9.9 mg/dL
same,GLP-1 concentration at each time point (hr) after oral glucose administration (% of Pre),Zucker fa/fa rats [4]; 0.5 hr,217.6 ± 24.6 % of Pre
same,Insulin concentration at each time point (hr) after oral glucose administration,Zucker fa/fa rats [4]; 0.5 hr,32.4 ± 3.2 ng/mL
same,Blood glucose level at each time point (hr) after oral glucose administration,Zucker fa/fa rats [4]; 1 hr,167.1 ± 7.0 mg/dL
same,GLP-1 concentration at each time point (hr) after oral glucose administration (% of Pre),Zucker fa/fa rats [4]; 1 hr,197.5 ± 20.4 % of Pre
same,Insulin concentration at each time point (hr) after oral glucose administration,Zucker fa/fa rats [4]; 1 hr,27.7 ± 5.0 ng/mL
same,Blood glucose level at each time point (hr) after oral glucose administration,Zucker fa/fa rats [4]; 2 hr,139.3 ± 3.3 mg/dL
same,GLP-1 concentration at each time point (hr) after oral glucose administration (% of Pre),Zucker fa/fa rats [4]; 2 hr,128.3 ± 5.4 % of Pre
same,Insulin concentration at each time point (hr) after oral glucose administration,Zucker fa/fa rats [4]; 2 hr,14.4 ± 2.6 ng/mL
same,Blood glucose level at each time point (hr) after oral glucose administration,Zucker fa/fa rats [4]; 3 hr,115.1 ± 3.0 mg/dL
same,Blood glucose level at each time point (hr) after oral glucose administration,Zucker fa/fa rats [4]; −0.5 hr,102.6 ± 3.0 mg/dL
same,GLP-1 concentration at each time point (hr) after oral glucose administration (% of Pre),Zucker fa/fa rats [4]; −0.5 hr,100.0 ± 0.0 % of Pre
same,Insulin concentration at each time point (hr) after oral glucose administration,Zucker fa/fa rats [4]; −0.5 hr,8.8 ± 1.1 ng/mL
same,glucose tolerance,Zucker fa/fa rats [4]; glucose tolerance test,improved
same,Wet weight of small intestine,"BALB/c AnCrj mice; 30 mg/kg p.o. twice a day, 5-FU treatment 60 mg/kg for 3 days, mice",0.637 ± 0.015 g
same,Wet weight of small intestine (g),"BALB/c AnCrj mice; 30 mg/kg p.o. twice a day, 5-FU treatment 60 mg/kg for 3 days, mice, listed as DPPIV inhibitor",no alteration
same,GLP-1 concentration at each time point (hr) after oral administration (% of Pre),[5]; 0 hr,100 ± 0.0 % of Pre
same,GLP-1 concentration at each time point (hr) after oral administration (% of Pre),[5]; 1 hr,127 ± 6 % of Pre
same,GLP-1 concentration at each time point (hr) after oral administration (% of Pre),[5]; 3 hr,136 ± 20 % of Pre
same,GLP-1 concentration at each time point (hr) after oral administration (% of Pre),[5]; 5 hr,91 ± 2 % of Pre
same,Total food intake for 14 days,Zucker fa/fa rats [6],491.8 ± 11.1 g
same,Weight gain for 14 days,Zucker fa/fa rats [6],60.9 ± 4.4 g
